Measured values published in patent publication US11865158B2, “Process and composition matter of nanoparticle formulation for systemic treatment of sepsis” (PURDUE RESEARCH FOUNDATION, priority 2019, dated 2024).
In brackets after ≈: the same amount, converted by molar mass.

Legend:
Assay in all cases: Minimum inhibitory concentration, broth microdilution
Assay type in all cases: cell-based
[1] = test system: Pseudomonas aeruginosa NR-50573
Source text: (§1) Bacterial cell lines and reagents. Escherichia coli ATCC 2452 (NDM-1, isolated in Pakistan) was New Delhi metallo-beta-lactamase (NDM-1) positive, blaNDM positive by PCR, and carbepenem-resistant (Imipenem and Ertapenem). Escherichia coli ATCC 2469 (1001728, isolated from human urine) was New Delhi metallo-beta-lactamase (NDM-1) positive, blaKPC negative and blaNDM positive by PCR, and Carbepenem-resistant (Imipenem and Ertapenem). Klebsiella pneumoniae (NR-41920, isolated in 2008 from human blood culture in Boston, Massachusetts, USA) was Carbapenem-resistant strain, blaKPC-3 positive by PCR, and resistant to amikacin, ampicillin/sulbactam, cefazolin, cefepime, ceftazidime, ceftriaxone, cefuroxime, ciprofloxacin, gentamicin, meropenem, piperacillin/tazobactam, tobramicin and trimethoprim/sulfamethoxazole. Pseudomonas aeruginosa (NR-50573, isolated in early 1970s from the blood of a burn patient at Mercy Hospital in Pittsburgh, Pennsylvania, USA) was resistant to rifampicin and susceptible to meropenem, ofloxacin, ceftazidime, amikacin, and tobramycin. 0.5 McFarland standard was purchased from ThermoFisher scientific (Waltham, MA, USA). Mueller-Hinton broth and tryptone soy agar plates were purchased from Becton, Dickinson and company (Franklin Lakes, New Jersey, USA).
(§2) Antimicrobial activities The minimum inhibitory concentrations (MICs) of the control antibiotics (gentamicin and imipenem), PMB, D-TZP and TZP against Escherichia coli, Klebsiella pneumoniae and Pseudomonas aeruginosa strains were determined by the broth microdilution method, according to guidelines outlined by the Clinical and Laboratory Standards Institute (CLSI)^18. The bacterial stains were grown aerobically overnight on tryptone soy agar plates at 37° C. Afterwards, a bacterial solution equivalent to 0.5 McFarland standard was prepared and diluted in cation-adjusted Mueller-Hinton broth (CAMHB) to achieve a bacterial concentration of ˜5×10^5 CFU/mL. The treatments were added in the first row of the 96-well plates and serially diluted with media containing bacteria. Plates were incubated aerobically at 37° C. for 16-18 hours.

[2] = test system: Klebsiella pneumoniae NR-41920
Source text: as §1, §2

[3] = test system: Escherichia coli ATCC 2452
Source text: as §1, §2

[4] = test system: Escherichia coli ATCC 2469
Source text: as §1, §2

What does the source list for `C[C@@H](O)[C@H]1C(=O)N2C(C(=O)O)=C(SCCN=CN)C[C@H]12` [Imipenem, imipenem]?
MIC ([1]; NR50573): 1 µg/mL (≈ 3.34 µM); MIC ([2]; NR41920): 8 µg/mL (≈ 26.7 µM); MIC ([3]; ATCC2452): 16 µg/mL (≈ 53.4 µM); MIC ([4]; ATCC2469): 16 µg/mL (≈ 53.4 µM)

How did the “Minimum inhibitory concentration (MIC)” value [1] turn out when gentamicin was run?
The value was 1 µg/mL.

And the “Minimum inhibitory concentration (MIC)” value [2]?
Its value is 64 µg/mL.

What about the “Minimum inhibitory concentration (MIC)” value [3] of the same molecule?
Its value is >64 µg/mL.

And the “Minimum inhibitory concentration (MIC)” value [4]?
The value was >64 µg/mL.
